Read-outs that look alike come from different tables or passages of the source. One block for each compound: values may come before it.
Assays:
rat α1B-receptor subtype [1] = molecular target: T1, rat α1B-receptor subtype (Rattus norvegicus, UniProt P15823); details: average ± SEM, n=5
T1 sequence (P15823 1-515): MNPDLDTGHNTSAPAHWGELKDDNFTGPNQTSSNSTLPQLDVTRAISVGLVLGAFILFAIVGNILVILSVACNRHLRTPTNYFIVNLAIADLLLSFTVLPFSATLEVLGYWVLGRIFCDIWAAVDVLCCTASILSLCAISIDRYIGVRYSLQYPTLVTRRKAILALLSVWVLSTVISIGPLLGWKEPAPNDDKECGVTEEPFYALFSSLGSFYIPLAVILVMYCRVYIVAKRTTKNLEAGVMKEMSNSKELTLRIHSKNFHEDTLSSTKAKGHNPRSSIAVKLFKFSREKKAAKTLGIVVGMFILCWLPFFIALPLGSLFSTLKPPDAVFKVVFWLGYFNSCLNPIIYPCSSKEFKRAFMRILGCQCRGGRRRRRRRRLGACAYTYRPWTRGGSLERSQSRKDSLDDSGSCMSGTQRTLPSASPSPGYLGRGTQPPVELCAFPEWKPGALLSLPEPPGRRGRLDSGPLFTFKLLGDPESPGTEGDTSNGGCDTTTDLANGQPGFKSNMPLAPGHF
Experimental: (§1) After 4 days of the transfection, these cells were again suspended in an ice-cold buffer for binding experiment (50 mmol/l Tris, 0.5 mmol/l EDTA, pH 7.5) and homogenized using Tissumeizer for 10 seconds at a maximum speed and then twice for 20 seconds at 2/3 speed. The thus obtained homogenate was centrifuged at 50,000 g for 20 minutes, and the resulting pellet was again suspended in the buffer for binding experiment to a concentration of 0.5 to 2 mg/ml.
(§2) This incubation was terminated by quick filtration under a reduced pressure using Whatman GF/C filter paper. Non-specific binding was defined as binding in the presence of 10 µmol/l of phentolamine. […] The protein content was determined in accordance with the Bradford method using bovine IgG as an standard. In the competitive binding experiment, each compound was evaluated by 3 to 4 tests using at least two separate batches of transfected cells.
(§3) The result was shown as the average value ± SEM of n times of tests.

[2] = molecular target: T2, rat α1A/D-receptor subtype (Rattus norvegicus, UniProt P23944); details: average ± SEM, n=8
T2 sequence (P23944 1-561): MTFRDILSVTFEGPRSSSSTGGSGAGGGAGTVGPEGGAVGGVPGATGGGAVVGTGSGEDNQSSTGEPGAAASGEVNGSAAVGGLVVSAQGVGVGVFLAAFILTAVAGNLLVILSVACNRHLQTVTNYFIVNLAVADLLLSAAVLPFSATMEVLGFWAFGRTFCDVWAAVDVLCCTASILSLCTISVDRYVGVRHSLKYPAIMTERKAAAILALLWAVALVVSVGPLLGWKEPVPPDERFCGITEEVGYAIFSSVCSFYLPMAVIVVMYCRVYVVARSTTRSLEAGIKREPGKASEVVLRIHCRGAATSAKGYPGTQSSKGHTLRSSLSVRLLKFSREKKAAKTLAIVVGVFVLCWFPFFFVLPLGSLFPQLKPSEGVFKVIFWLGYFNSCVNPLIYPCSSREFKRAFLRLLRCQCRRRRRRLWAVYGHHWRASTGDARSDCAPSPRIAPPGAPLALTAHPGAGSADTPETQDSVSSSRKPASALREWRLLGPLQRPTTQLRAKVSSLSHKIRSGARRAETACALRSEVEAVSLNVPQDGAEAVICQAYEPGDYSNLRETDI
Experimental: as §1, §2, §3

[3] = molecular target: T3, bovine α1C-receptor subtype (Bos taurus, UniProt P18130); test: Competitive binding experiment against [³H] prazosin, transfected COS-7 cell membranes
T3 construct: pBCα1c which contains the entire coding region of bovine α1C receptor subtype; expressed in transfected cells; host or cells: COS-7 cells, transient expression, membrane preparation
T3 sequence (P18130 1-466): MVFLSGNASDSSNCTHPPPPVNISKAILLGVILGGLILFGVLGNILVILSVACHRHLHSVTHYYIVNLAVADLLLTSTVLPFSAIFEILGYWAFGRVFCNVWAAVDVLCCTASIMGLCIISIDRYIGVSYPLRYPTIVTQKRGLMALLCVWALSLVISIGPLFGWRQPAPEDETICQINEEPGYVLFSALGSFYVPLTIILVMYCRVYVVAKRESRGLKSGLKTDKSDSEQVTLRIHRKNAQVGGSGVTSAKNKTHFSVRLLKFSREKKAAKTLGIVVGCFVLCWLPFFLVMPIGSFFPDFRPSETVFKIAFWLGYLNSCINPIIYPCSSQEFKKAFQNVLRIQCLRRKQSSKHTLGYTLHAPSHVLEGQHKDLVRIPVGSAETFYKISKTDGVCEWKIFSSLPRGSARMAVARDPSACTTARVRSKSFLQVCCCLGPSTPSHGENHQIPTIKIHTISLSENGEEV

rat α1B-receptor subtype [4] = molecular target: T1, rat α1B-receptor subtype; test: as above; set-up: pcDV1Rα1B which contains a 2573 bp fragment containing the entire coding region of α1B receptor subtype cDNA; expressed in transfected cells; host or cells: COS-7 cells, transient expression, membrane preparation
Experimental: as §1, §2, §3

[5] = human clinical tests (K. Kawabe et al., J. Urol., 1990); cited from earlier work
[6] = read-out: negative logarism values (-log values) of Ki values (converted)

BMAX (rat α1B-receptor subtype [1]): 1673 ± 1203 fmol/mg protein | BMAX [2]: 240 ± 87 fmol/mg protein
Compound: [³H] prazosin

Compound: CCOc1ccccc1OCCN[C@@H](C)Cc1ccc(OC)c(S(N)(=O)=O)c1 [Compound B, S(+)-5-[2-[[2-(o-ethoxyphenoxy)ethyl]amino]propyl]-2-methoxybenzenesulfonamide]
Ki [3, 6]: 0.347 nM | Ki (rat α1B-receptor subtype [4]): 105 nM

Compound: CCOc1ccccc1OCCN[C@H](C)Cc1ccc(OC)c(S(N)(=O)=O)c1 [Compound A, R(-)-5-[2-[[2-(o-ethoxyphenoxy)ethyl]amino]propyl]-2-methoxybenzenesulfonamide]
Ki [3]: 0.0229 nM | influence upon blood pressure [5]: without exerting influence upon blood pressure | side effects [5]: hardly shows side effects | treatment of urinary outlet obstruction associated with benign prostatic hyperplasia [5]: useful in treating urinary outlet obstruction associated with benign prostatic hyperplasia | Ki (rat α1B-receptor subtype [4]; [6]): 0.871 nM

From patent EP0710486A1, “REMEDY FOR URINATION DISORDER ACCOMPANYING PROSTATIC HYPERTROPHY” (YAMANOUCHI PHARMACEUTICAL CO. LTD., priority 1993, dated 1995)
